From patent US4496572A, “Benzo-fused thromboxane synthetase inhibitors” (Pfizer Inc., priority 1981, dated 1985)

Columns and labels:
TxB2 production = test: TxB2 generation in clotted whole blood after i.v. dosing (method of Patrono et al, RIA); format: in vivo, rabbits; details: Oryctolagus cuniculus, iv; for inhibition at 0.3 mg/kg: 0.3 mg/kg i.v.; for inhibition at 0.1 mg/kg: 0.1 mg/kg i.v.
Procedure: The method of Patrono et al is adapted to study the generation of TxB2 is whole blood samples removed from animals prior to and following drug treatment. Briefly, blood samples are taken into glass tubes and allowed to clot at 37° C. Serum is separated by centrifugation and the samples stored at -40° C. until assayed for TxB2, when appropriate dilutions of ethanol deproteinised samples are analysed by RIA. This technique is used in experiments with the test compounds to determine intravenous potency in anaesthetised rabbits:
Male New Zealand white rabbits (2.6-5.6 kg) are anaesthetised with sodium pentobarbitone (30 mg/kg i.v.) followed by urethane (500 mg/kg i.p.). After cannulation of the trachea, a carotid artery is catheterised for collection of blood samples. The catheter is kept patent by slow infusion (0.2 ml/minute) of sterile saline. Control carotid arterial blood samples are taken 30 and 5 minutes prior to administration of the test compound or vehicle (0.9% w/v NaCl, 0.2 ml/kg) via a marginal ear vein. Three groups of rabbits are used. The first group receive 0.03 mg/kg of the test compound followed, one hour later, by 0.1 mg/kg. Similarly, the second group receive 0.3 mg/kg, followed by 1 mg/kg. The third group receive vehicle, followed one hour later by a further vehicle injection. […] At each time point, a 1 ml blood sample is taken into a glass test tube, without anticoagulant, for TxB2 determination. For the latter, the blood sample is allowed to clot during a two hour incubation at 37° C. (which preliminary experiments had shown to give maximum TxB2 production) and the serum obtained by centrifugation. Serum samples are then processed through the TxB2 RIA after deproteinisation with ethanol and dilution with Isogel Tris buffer.

prostacyclin synthetase = details: pre-incubation of the enzyme with the inhibitor; cited from earlier work
[1] = system: human blood platelet aggregation; details: human blood platelets; cited from earlier work
[2] = rabbit, intravenous arachidonic acid; cited from earlier work
aggregation of platelets = details: rats in vivo; cited from earlier work

O=C(O)c1ccc2sc(Cn3ccnc3)cc2c1 showed an inhibition at 0.3 mg/kg (TxB2 production; 0.25 h, 15 MIN post dose) of 96% and an inhibition at 0.3 mg/kg (TxB2 production; 0.5 h, 30 MIN post dose) of 89%.

For Cc1c(Cn2ccnc2)sc2ccc(C(=O)O)cc12, the inhibition at 0.1 mg/kg (TxB2 production; 2 min, 2 MIN post dose) was 100%, the inhibition at 0.1 mg/kg (TxB2 production; 0.25 h, 15 MIN post dose) was 98% and the inhibition at 0.3 mg/kg (TxB2 production; 0.25 h, 15 MIN post dose) was 94%. For the same compound, the inhibition at 0.3 mg/kg (TxB2 production; 0.5 h, 30 MIN post dose) was 95%, the inhibition at 0.1 mg/kg (TxB2 production; 0.75 h, 45 MIN post dose) was 100% and the inhibition at 0.1 mg/kg (TxB2 production; 1.25 h, 75 MIN post dose) was 98%.

Compound O=C(O)c1ccc2sc(Cn3ccnc3)c(Cl)c2c1 has an inhibition at 0.3 mg/kg (TxB2 production; 2 min, 2 MIN post dose) of 99%, an inhibition at 0.1 mg/kg (TxB2 production; 0.25 h, 15 MIN post dose) of 99% and an inhibition at 0.3 mg/kg (TxB2 production; 0.25 h, 15 MIN post dose) of 100%. The inhibition at 0.1 mg/kg (TxB2 production; 0.5 h, 30 MIN post dose) was 96%, the inhibition at 0.3 mg/kg (TxB2 production; 0.75 h, 45 MIN post dose) was 100% and the inhibition at 0.3 mg/kg (TxB2 production; 1.25 h, 75 MIN post dose) was 99%.

Compound CSc1c(Cn2ccnc2)sc2ccc(C(=O)O)cc12 has an inhibition at 0.3 mg/kg (TxB2 production; 2 min, 2 MIN post dose) of 99%, an inhibition at 0.1 mg/kg (TxB2 production; 0.25 h, 15 MIN post dose) of 93% and an inhibition at 0.3 mg/kg (TxB2 production; 0.25 h, 15 MIN post dose) of 98%. The inhibition at 0.1 mg/kg (TxB2 production; 0.5 h, 30 MIN post dose) was 95%, the inhibition at 0.3 mg/kg (TxB2 production; 0.75 h, 45 MIN post dose) was 97% and the inhibition at 0.3 mg/kg (TxB2 production; 1.25 h, 75 MIN post dose) was 95%.

Work on Cc1c(Cn2ccnc2)sc2cc(C(=O)O)ccc12 yielded an inhibition at 0.3 mg/kg (TxB2 production; 2 min, 2 MIN post dose) of 100%, an inhibition at 0.1 mg/kg (TxB2 production; 0.25 h, 15 MIN post dose) of 100% and an inhibition at 0.3 mg/kg (TxB2 production; 0.25 h, 15 MIN post dose) of 100%. It also gave an inhibition at 0.1 mg/kg (TxB2 production; 0.5 h, 30 MIN post dose) of 100%, an inhibition at 0.3 mg/kg (TxB2 production; 0.75 h, 45 MIN post dose) of 100% and an inhibition at 0.3 mg/kg (TxB2 production; 1.25 h, 75 MIN post dose) of 100%.

Cc1c(Cc2cccnc2)sc2ccc(C(=O)O)cc12 gave an inhibition at 0.3 mg/kg (TxB2 production; 2 min, 2 MIN post dose) of 98%, an inhibition at 0.1 mg/kg (TxB2 production; 0.25 h, 15 MIN post dose) of 96% and an inhibition at 0.3 mg/kg (TxB2 production; 0.25 h, 15 MIN post dose) of 99%. The inhibition at 0.1 mg/kg (TxB2 production; 0.5 h, 30 MIN post dose) was 85%, the inhibition at 0.3 mg/kg (TxB2 production; 0.75 h, 45 MIN post dose) was 97% and the inhibition at 0.3 mg/kg (TxB2 production; 1.25 h, 75 MIN post dose) was 83%.

Cc1c(Cc2cccnc2)sc2cc(C(=O)O)ccc12 showed an inhibition at 0.3 mg/kg (TxB2 production; 2 min, 2 MIN post dose) of 90%, an inhibition at 0.1 mg/kg (TxB2 production; 0.25 h, 15 MIN post dose) of 76% and an inhibition at 0.3 mg/kg (TxB2 production; 0.25 h, 15 MIN post dose) of 91%. It also gave an inhibition at 0.1 mg/kg (TxB2 production; 0.5 h, 30 MIN post dose) of 46%, an inhibition at 0.3 mg/kg (TxB2 production; 0.75 h, 45 MIN post dose) of 71% and an inhibition at 0.3 mg/kg (TxB2 production; 1.25 h, 75 MIN post dose) of 52%.

With Cc1c(Sc2cccnc2)sc2ccc(C(=O)O)cc12 the inhibition at 0.3 mg/kg (TxB2 production; 2 min, 2 MIN post dose) was 98%, the inhibition at 0.1 mg/kg (TxB2 production; 0.25 h, 15 MIN post dose) was 29% and the inhibition at 0.3 mg/kg (TxB2 production; 0.25 h, 15 MIN post dose) was 81%. The inhibition at 0.1 mg/kg (TxB2 production; 0.5 h, 30 MIN post dose) was 22%, the inhibition at 0.3 mg/kg (TxB2 production; 0.75 h, 45 MIN post dose) was 36% and the inhibition at 0.3 mg/kg (TxB2 production; 1.25 h, 75 MIN post dose) was 33%.

Cc1c(Cn2ccnc2)oc2ccc(C(=O)O)cc12 showed an inhibition at 0.3 mg/kg (TxB2 production; 2 min, 2 MIN post dose) of 92%, an inhibition at 0.1 mg/kg (TxB2 production; 0.25 h, 15 MIN post dose) of 47% and an inhibition at 0.3 mg/kg (TxB2 production; 0.25 h, 15 MIN post dose) of 83%. It also gave an inhibition at 0.1 mg/kg (TxB2 production; 0.5 h, 30 MIN post dose) of 37%, an inhibition at 0.3 mg/kg (TxB2 production; 0.75 h, 45 MIN post dose) of 65% and an inhibition at 0.3 mg/kg (TxB2 production; 1.25 h, 75 MIN post dose) of 51%.

O=C(O)c1ccc2oc(Cn3ccnc3)c(Br)c2c1 gave an inhibition at 0.3 mg/kg (TxB2 production; 2 min, 2 MIN post dose) of 87%, an inhibition at 0.1 mg/kg (TxB2 production; 0.25 h, 15 MIN post dose) of 52% and an inhibition at 0.3 mg/kg (TxB2 production; 0.25 h, 15 MIN post dose) of 84%. For the same compound, the inhibition at 0.1 mg/kg (TxB2 production; 0.5 h, 30 MIN post dose) was 33%, the inhibition at 0.3 mg/kg (TxB2 production; 0.75 h, 45 MIN post dose) was 65% and the inhibition at 0.3 mg/kg (TxB2 production; 1.25 h, 75 MIN post dose) was 41%.

O=C(O)c1ccc2oc(Cn3ccnc3)c(Cl)c2c1 gave an inhibition at 0.3 mg/kg (TxB2 production; 2 min, 2 MIN post dose) of 98%, an inhibition at 0.1 mg/kg (TxB2 production; 0.25 h, 15 MIN post dose) of 88% and an inhibition at 0.3 mg/kg (TxB2 production; 0.25 h, 15 MIN post dose) of 97%. The inhibition at 0.1 mg/kg (TxB2 production; 0.5 h, 30 MIN post dose) was 82%, the inhibition at 0.3 mg/kg (TxB2 production; 0.75 h, 45 MIN post dose) was 93% and the inhibition at 0.3 mg/kg (TxB2 production; 1.25 h, 75 MIN post dose) was 86%.

Cc1c(Cn2ccnc2)n(C)c2ccc(C(=O)O)cc12 showed an inhibition at 0.3 mg/kg (TxB2 production; 2 min, 2 MIN post dose) of 99%, an inhibition at 0.1 mg/kg (TxB2 production; 0.25 h, 15 MIN post dose) of 85% and an inhibition at 0.3 mg/kg (TxB2 production; 0.25 h, 15 MIN post dose) of 95%. It also gave an inhibition at 0.1 mg/kg (TxB2 production; 0.5 h, 30 MIN post dose) of 84%, an inhibition at 0.3 mg/kg (TxB2 production; 0.75 h, 45 MIN post dose) of 93% and an inhibition at 0.3 mg/kg (TxB2 production; 1.25 h, 75 MIN post dose) of 81%.

Cc1c(Cc2cccnc2)ccc2ccc(C(=O)O)cc12 gave an inhibition at 0.3 mg/kg (TxB2 production; 2 min, 2 MIN post dose) of 99%, an inhibition at 0.1 mg/kg (TxB2 production; 0.25 h, 15 MIN post dose) of 95% and an inhibition at 0.3 mg/kg (TxB2 production; 0.25 h, 15 MIN post dose) of 98%. It also gave an inhibition at 0.1 mg/kg (TxB2 production; 0.5 h, 30 MIN post dose) of 92%, an inhibition at 0.3 mg/kg (TxB2 production; 0.75 h, 45 MIN post dose) of 95% and an inhibition at 0.3 mg/kg (TxB2 production; 1.25 h, 75 MIN post dose) of 97%.

For 15-hydroperoxyarachidonic acid, the “inhibition of PGI2 production” value (prostacyclin synthetase) is listed as “completely inhibited”.

For CC(=O)Oc1ccccc1C(=O)O [aspirin], the “inhibitory activity in vitro against a variety of aggregating agents” value [1] is given as “show inhibitory activity” and the “protection from the lethal effect of arachidonic acid injection” value [2] is given as “protect the rabbit from the lethal effect”.

In the case of O=C1C(CC[S+]([O-])c2ccccc2)C(=O)N(c2ccccc2)N1c1ccccc1 (centres unmarked) [sulphinpyrazone], the “inhibitory activity in vitro against a variety of aggregating agents” value [1] is given as “show inhibitory activity”, the “protection from the lethal effect of arachidonic acid injection” value [2] is given as “protect the rabbit from the lethal effect” and the “prevention of platelet aggregation in extra corporeal loop of the abdominal aorta” value (aggregation of platelets) is given as “prevent the aggregation of platelets”.
